# Experimental data: ChEMBL document CHEMBL4311992, “Discovery of 3-(((9H-purin-6-yl)amino)methyl)-4,6-dimethylpyridin-2(1H)-one derivatives as novel tubulin polymerization inhibitors for treatment of cancer” (Eur J Med Chem, 2019)
# Key:
# [1] = target: Serine/threonine-protein kinase DCLK3 (Homo sapiens) (UniProt Q9C098); test: Inhibition of recombinant human DCAMKL3 (345 to end residues) assessed as residual activity at 10 uM using KKLNRTLSFAEPG as substrate measured after 40 mins in presence of [gamma33P]ATP by scintillation counting method
# [2] = tested on: Tyrosine-protein kinase ABL1 (Homo sapiens), P00519 [Y253F]; test: Inhibition of recombinant human ABL Y253F mutant (27 to end residues) assessed as residual activity at 10 uM using EAIYAAPFAKKK as substrate measured after 40 mins in presence of [gamma33P]ATP by scintillation counting method
# [3] = tested on: CDK18/Cyclin Y (Homo sapiens), Q07002+Q8ND76 [T166M]; test: Inhibition of recombinant full length human cyclinY/CDK18 T166M mutant assessed as residual activity at 10 uM using YRRAAVPPSPSLS as substrate measured after 40 mins in presence of [gamma33P]ATP by scintillation counting method; type: protein-complex assay
# [4] = target: Cytoplasmic tyrosine-protein kinase BMX (Homo sapiens) (UniProt P51813); test: Inhibition of full-length recombinant human BMX assessed as residual activity at 10 uM using poly(Glu, Tyr) 4:1 as substrate measured after 40 mins in presence of [gamma33P]ATP by scintillation counting method
# [5] = target: MAP/microtubule affinity-regulating kinase 3 (Homo sapiens) (UniProt P27448); test: Inhibition of recombinant full-length human MARK3 assessed as residual activity at 10 uM using KKKVSRSGLYRSPSMPENLNRPR as substrate measured after 40 mins in presence of [gamma33P]ATP by scintillation counting method
# [6] = target: Cyclin-dependent kinase-like 2 (Homo sapiens) (UniProt Q92772); test: Inhibition of human CDKL2 assessed as residual activity at 10 uM by radiometric method
# [7] = target: Serine/threonine-protein kinase VRK1 (Homo sapiens) (UniProt Q99986); test: Inhibition of human VRK1 assessed as residual activity at 10 uM by radiometric method
# [8] = tested on: Tyrosine-protein kinase ABL1 (Homo sapiens), P00519 [M351T]; test: Inhibition of recombinant human ABL M351T mutant (27 to end residues) assessed as residual activity at 10 uM using EAIYAAPFAKKK as substrate measured after 40 mins in presence of [gamma33P]ATP by scintillation counting method
# [9] = tested on: Homeodomain-interacting protein kinase 2 (Homo sapiens), Q9H2X6 [UNDEFINED MUTATION]; test: Inhibition of recombinant human HIPK2 I471N mutant (165 to 564 residues) assessed as residual activity at 10 uM using myelin basic protein as substrate measured after 40 mins in presence of [gamma33P]ATP by scintillation counting method
# Homeodomain-interacting protein kinase 2 (Homo sapiens), Q9H2X6 [UNDEFINED MUTATION], sequence (Q9H2X6 whole entry, looked up, stated change not applied, the tested form may be a part): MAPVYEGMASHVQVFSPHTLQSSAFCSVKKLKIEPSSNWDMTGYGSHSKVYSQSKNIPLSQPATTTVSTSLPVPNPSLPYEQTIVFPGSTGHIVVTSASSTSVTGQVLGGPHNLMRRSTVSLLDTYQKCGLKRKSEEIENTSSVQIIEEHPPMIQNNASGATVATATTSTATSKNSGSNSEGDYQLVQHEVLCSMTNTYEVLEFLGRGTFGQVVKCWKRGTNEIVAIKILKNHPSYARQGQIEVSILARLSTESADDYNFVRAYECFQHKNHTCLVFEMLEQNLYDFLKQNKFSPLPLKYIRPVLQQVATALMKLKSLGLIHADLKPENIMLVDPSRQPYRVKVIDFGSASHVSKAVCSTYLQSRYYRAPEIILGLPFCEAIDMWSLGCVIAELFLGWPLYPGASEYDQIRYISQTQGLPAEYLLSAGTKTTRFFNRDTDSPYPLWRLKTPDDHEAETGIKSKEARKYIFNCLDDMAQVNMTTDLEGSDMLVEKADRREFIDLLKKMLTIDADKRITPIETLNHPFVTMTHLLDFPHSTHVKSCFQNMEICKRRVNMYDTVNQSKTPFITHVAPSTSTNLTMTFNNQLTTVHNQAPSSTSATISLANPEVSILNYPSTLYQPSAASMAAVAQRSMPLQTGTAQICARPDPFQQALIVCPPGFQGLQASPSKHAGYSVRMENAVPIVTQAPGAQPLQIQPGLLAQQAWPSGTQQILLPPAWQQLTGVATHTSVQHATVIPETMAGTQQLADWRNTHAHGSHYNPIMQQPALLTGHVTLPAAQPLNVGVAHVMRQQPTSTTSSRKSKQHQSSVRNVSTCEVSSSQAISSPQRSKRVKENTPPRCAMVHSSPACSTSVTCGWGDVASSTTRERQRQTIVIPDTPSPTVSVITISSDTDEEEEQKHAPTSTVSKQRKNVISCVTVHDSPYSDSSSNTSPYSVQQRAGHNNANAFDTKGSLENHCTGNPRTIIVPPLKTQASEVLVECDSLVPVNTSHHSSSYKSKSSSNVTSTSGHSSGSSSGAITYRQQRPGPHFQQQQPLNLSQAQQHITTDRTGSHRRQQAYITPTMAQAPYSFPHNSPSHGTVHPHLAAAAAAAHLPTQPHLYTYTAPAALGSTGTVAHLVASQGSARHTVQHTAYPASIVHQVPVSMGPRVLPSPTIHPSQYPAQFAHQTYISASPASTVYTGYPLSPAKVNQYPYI
# [10] = tested on: SW-620; test: Induction of apoptosis in human SW620 cells assessed as viable cells at 50 nM measured after 48 hrs by Annexin V-FITC/propidium iodide staining-based flow cytometry (reference value: 94.7%); type: functional; settings: SW-620, 48 h, read-out: Activity
# [11] = target: Serine/threonine-protein kinase 17A (Homo sapiens) (UniProt Q9UEE5); test: Inhibition of recombinant full-length human DRAK1 assessed as residual activity at 10 uM using KKLNRTLSFAEPG as substrate measured after 40 mins in presence of [gamma33P]ATP by scintillation counting method
# [12] = target: Protein kinase C epsilon type (Homo sapiens) (UniProt Q02156); test: Inhibition of recombinant human PKCepsilon (2 to end residues) assessed as residual activity at 10 uM using ERMRPRKRQGSVRRRV as substrate measured after 40 mins in presence of [gamma33P]ATP by scintillation counting method
# [13] = target: Serine/threonine-protein kinase SIK1 (Homo sapiens) (UniProt P57059); test: Inhibition of human SIK (1 to 281 residues) using AMARAASAAALARRR as substrate measured after 40 mins in presence of [gamma33P]ATP by scintillation counting method; design: scale not given: the % may be the effect or the level left
# [14] = tested on: Hepatocyte growth factor receptor (Homo sapiens), P08581 [D1228N]; test: Inhibition of recombinant human MET A1209G/V1290L/D1246N mutant (974 to end residues) assessed as residual activity at 10 uM using KKKGQEEEYVFIE as substrate measured after 40 mins in presence of [gamma33P]ATP by scintillation counting method
# [15] = tested on: eIF-2-alpha kinase GCN2 (Homo sapiens), Q9P2K8 [E556G]; test: Inhibition of recombinant full-length human GCN2 E556G mutant assessed as residual activity at 10 uM using RSRSRSRSRSRSRSR as substrate measured after 40 mins in presence of [gamma33P]ATP by scintillation counting method
# eIF-2-alpha kinase GCN2 (Homo sapiens), Q9P2K8 [E556G], sequence (Q9P2K8 whole entry E556G): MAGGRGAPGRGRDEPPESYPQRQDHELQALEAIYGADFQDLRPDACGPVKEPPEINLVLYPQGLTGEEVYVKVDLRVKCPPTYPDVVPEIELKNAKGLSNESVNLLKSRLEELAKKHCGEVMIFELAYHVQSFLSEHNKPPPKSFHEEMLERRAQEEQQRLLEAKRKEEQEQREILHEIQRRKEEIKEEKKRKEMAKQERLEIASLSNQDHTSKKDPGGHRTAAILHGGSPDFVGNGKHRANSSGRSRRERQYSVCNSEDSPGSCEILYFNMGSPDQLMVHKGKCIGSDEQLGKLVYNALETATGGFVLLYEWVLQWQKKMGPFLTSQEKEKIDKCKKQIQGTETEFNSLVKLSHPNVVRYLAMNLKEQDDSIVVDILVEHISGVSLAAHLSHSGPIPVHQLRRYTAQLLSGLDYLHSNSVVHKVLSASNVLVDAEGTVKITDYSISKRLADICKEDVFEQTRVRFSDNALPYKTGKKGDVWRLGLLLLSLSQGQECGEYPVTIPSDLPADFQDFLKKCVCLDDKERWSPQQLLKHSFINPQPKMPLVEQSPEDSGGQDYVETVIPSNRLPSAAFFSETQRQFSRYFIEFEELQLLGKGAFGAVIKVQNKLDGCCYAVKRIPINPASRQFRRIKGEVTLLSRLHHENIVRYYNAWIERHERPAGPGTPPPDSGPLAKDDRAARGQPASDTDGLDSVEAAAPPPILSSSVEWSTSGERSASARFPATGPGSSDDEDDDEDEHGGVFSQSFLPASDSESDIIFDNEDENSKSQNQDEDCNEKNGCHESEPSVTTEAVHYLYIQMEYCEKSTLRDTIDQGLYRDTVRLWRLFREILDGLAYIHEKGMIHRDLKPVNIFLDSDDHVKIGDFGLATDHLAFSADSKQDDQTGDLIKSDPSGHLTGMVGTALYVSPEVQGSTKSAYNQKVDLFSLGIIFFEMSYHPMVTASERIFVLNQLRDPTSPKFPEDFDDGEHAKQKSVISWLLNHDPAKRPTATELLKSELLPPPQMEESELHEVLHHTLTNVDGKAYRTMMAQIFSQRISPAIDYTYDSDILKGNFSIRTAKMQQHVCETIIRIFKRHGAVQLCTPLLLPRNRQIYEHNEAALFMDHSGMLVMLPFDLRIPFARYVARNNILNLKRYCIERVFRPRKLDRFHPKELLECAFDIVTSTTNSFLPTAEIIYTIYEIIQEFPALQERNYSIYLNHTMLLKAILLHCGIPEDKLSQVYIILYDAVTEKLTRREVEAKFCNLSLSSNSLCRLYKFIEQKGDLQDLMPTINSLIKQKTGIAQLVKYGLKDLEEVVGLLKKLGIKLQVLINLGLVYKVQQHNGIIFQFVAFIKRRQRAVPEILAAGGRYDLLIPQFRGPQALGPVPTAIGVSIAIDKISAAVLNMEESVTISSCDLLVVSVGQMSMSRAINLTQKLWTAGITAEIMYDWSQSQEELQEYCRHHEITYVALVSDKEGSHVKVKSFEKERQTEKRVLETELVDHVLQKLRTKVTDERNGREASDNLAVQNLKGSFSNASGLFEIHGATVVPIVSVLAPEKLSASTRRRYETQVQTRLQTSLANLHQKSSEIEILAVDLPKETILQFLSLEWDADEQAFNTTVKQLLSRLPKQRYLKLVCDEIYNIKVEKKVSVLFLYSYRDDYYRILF
# [16] = tested on: SW-620; test: Induction of apoptosis in human SW620 cells assessed as increase in cleaved caspase9 expression measured after 48 hrs by Western blot analysis; type: functional, cell-based
# [17] = target: Tyrosine-protein kinase ZAP-70 (Homo sapiens) (UniProt P43403); test: Inhibition of recombinant full-length human ZAP70 assessed as residual activity at 10 uM using poly(Glu, Tyr) 4:1 as substrate measured after 40 mins in presence of [gamma33P]ATP by scintillation counting method
# Tyrosine-protein kinase ZAP-70 (Homo sapiens), sequence (P43403 whole entry): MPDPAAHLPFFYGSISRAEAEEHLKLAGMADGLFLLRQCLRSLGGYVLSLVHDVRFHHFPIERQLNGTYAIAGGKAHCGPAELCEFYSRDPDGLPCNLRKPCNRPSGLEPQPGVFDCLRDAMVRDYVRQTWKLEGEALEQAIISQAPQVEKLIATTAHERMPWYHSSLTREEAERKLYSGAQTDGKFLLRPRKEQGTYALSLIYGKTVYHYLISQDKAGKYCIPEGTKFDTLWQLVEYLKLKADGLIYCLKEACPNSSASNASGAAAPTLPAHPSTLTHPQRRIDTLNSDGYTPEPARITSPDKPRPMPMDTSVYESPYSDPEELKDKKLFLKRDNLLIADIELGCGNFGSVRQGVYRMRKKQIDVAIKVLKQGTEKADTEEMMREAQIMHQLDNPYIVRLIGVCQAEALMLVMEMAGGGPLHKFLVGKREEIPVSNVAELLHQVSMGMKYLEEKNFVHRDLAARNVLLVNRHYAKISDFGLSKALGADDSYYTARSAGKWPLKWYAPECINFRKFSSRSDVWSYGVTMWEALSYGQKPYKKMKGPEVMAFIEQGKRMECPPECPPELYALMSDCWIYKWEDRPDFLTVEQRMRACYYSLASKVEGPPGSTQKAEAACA
# [18] = Toxicity in nude BALB/c mouse assessed as change in WBC level at 40 to 80 mg/kg, po once daily for 4 weeks measured post-last dose; type: organism-based; settings: in vivo, 672 h
# [19] = target: Serine/threonine-protein kinase VRK2 (Homo sapiens) (UniProt Q86Y07); test: Inhibition of human VRK2 (1 to 336 residues) using casein as substrate measured after 40 mins in presence of [gamma33P]ATP by scintillation counting method; design: scale not given: the % may be the effect or the level left
# [20] = target: Casein kinase II subunit alpha (Homo sapiens) (UniProt P68400); test: Inhibition of recombinant full length human CK2alpha1 assessed as residual activity at 10 uM using RRRDDDSDDD as substrate measured after 40 mins in presence of [gamma33P]ATP by scintillation counting method
# Casein kinase II subunit alpha (Homo sapiens), sequence (P68400 whole entry, looked up): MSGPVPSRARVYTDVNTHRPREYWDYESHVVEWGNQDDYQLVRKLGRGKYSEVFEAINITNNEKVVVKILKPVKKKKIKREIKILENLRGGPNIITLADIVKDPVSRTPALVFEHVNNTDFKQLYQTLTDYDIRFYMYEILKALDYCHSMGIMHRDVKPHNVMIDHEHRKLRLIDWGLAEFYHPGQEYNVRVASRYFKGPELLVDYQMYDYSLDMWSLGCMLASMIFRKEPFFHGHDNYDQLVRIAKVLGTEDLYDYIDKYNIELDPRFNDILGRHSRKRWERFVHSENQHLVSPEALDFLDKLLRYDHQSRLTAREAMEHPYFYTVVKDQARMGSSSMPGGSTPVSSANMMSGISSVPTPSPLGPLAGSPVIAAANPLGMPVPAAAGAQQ
# [21] = tested on: Serine/threonine-protein kinase B-raf (Homo sapiens), P15056 [V600E]; test: Inhibition of recombinant human BRAF V599E mutant (416 to end residues) assessed as residual activity at 10 uM using myelin basic protein as substrate measured after 40 mins in presence of [gamma33P]ATP by scintillation counting method
# [22] = target: Serine/threonine-protein kinase SBK1 (Homo sapiens) (UniProt Q52WX2); test: Inhibition of recombinant full-length human SBK1 assessed as residual activity at 10 uM using KKLRRTLSVA as substrate measured after 120 mins in presence of [gamma33P]ATP by scintillation counting method
# [23] = tested on: Serine/threonine-protein kinase Sgk1 (Homo sapiens), O00141 [S422D]; test: Inhibition of recombinant human SGK S422D mutant (60 to end residues) assessed as residual activity at 10 uM using GRPRTSSFAEGKK as substrate measured after 40 mins in presence of [gamma33P]ATP by scintillation counting method
# [24] = target: Serine/threonine-protein kinase Nek9 (Homo sapiens) (UniProt Q8TD19); test: Inhibition of recombinant human NEK9 (1 to 324 residues) assessed as residual activity at 10 uM using myelin basic protein as substrate measured after 40 mins in presence of [gamma33P]ATP by scintillation counting method
# Serine/threonine-protein kinase Nek9 (Homo sapiens), sequence (Q8TD19 whole entry, the tested form may be a part): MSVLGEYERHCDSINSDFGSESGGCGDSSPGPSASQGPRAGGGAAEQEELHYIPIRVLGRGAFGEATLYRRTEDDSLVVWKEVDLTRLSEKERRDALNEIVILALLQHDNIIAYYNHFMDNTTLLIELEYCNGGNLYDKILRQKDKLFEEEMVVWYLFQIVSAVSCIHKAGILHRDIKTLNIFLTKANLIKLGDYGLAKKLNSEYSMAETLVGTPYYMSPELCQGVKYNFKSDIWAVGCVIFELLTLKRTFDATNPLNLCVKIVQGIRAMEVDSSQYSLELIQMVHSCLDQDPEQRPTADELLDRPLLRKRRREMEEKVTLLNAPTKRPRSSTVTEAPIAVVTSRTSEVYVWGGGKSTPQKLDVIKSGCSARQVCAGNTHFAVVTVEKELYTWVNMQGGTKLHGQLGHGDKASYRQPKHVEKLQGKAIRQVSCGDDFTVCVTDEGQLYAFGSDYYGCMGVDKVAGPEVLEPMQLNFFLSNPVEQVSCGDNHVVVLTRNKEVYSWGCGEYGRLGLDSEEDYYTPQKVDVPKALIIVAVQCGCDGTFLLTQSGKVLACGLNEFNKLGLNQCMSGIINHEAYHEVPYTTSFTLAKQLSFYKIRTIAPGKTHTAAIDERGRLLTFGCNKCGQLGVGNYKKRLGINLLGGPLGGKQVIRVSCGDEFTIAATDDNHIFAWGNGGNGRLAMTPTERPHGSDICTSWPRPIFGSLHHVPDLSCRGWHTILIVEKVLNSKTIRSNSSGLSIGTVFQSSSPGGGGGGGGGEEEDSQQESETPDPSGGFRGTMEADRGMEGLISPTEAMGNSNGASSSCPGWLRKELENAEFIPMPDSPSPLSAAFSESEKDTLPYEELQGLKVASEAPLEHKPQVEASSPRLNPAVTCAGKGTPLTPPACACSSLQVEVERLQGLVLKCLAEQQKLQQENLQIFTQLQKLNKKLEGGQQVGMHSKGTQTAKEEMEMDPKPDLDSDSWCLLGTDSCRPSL
smiles,measurement,setting,value
Cc1cc(C)c(CNc2nc(Cl)nc3c2ncn3C2CCCC2)c(=O)[nH]1,Activity,[1],110%
same,Activity,[2],109%
same,Activity,[3],101%
same,Activity,[4],132%
same,Activity,[5],90%
same,Activity,[6],131%
same,Activity,[7],92.5%
same,Activity,[8],96.5%
same,Activity,[9],104%
same,viability at 0.05 µM,[10],83.4%
same,Activity,[11],91.5%
same,Activity,[12],95%
same,Activity,[13],104%
same,Activity,[14],112%
same,Activity,[15],110%
same,Activity,[16],Dose-dependent effect
same,Activity,[17],95.5%
same,Activity,[18],Non-Toxic
same,Activity,[19],102%
same,Activity,[20],88%
same,Activity,[21],108%
same,Activity,[22],107%
same,Activity,[23],136%
same,Activity,[24],102%
